# Read-outs that look alike come from different tables or passages of the source.
# How the values were obtained:
# Ehrlich carcinoma = details: for C/T Index: Ehrlich carcinoma; for No. survivors/No. tested: mouse, in vivo, ip
# leukemia L1210 ascites = assay: Leukemia L1210 ascites in mice; format: in vivo; details: 100 mg/kg intraperitoneally, BDF1 mice
# KA-31 = details: for activity against KA-31 solid tumor (in words): 14 ip treatments
# pseudorabies virus = assay: animal or person; format: in vivo, mice (Swiss albino); details: Suid alphaherpesvirus 1, in Mus musculus, ip, 504 h, read-out: PD50 (Protective Dose50)
# [1] = test system: herpes simplex type 1 virus; assay: animal or person; format: in vivo, mice (Swiss albino); details: intraperitoneally, -24, 0, +24 hr, mice, day 21, disodium salt; for ED50: Human alphaherpesvirus 1, ip, 504 h, read-out: PD50 (Protective Dose50)
# [2] = test system: herpes simplex type 2 virus; assay: animal or person; format: in vivo, mice (Swiss albino); details: Human alphaherpesvirus 2, ip, 504 h, intraperitoneally, -24, 0, +24 hr, mice, day 21, read-out: PD50 (Protective Dose50)
# Marek's disease = details: poultry; U.S. Pat. No. 3,836,650; cited from earlier work
# herpes simlpex infection = details: oral and topical; Shipkowitz et al. 1973; cited from earlier work
compound,measurement,setting,value
"O=C(O)CP(=O)(O)OC[C@H]1O[C@@H](n2cc(F)c(=O)[nH]c2=O)C[C@@H]1O [Compound A, 5-Fluoro-2-deoxyuridine-5'-mono-carboxymethylphosphonate]",activity against Ehrlich carcinoma (in words),Ehrlich carcinoma; 6.25 mg/kg,inactive
same,activity against Ehrlich carcinoma (in words),Ehrlich carcinoma; 12.5 mg/kg,active
same,activity against Ehrlich carcinoma (in words),Ehrlich carcinoma; 25 mg/kg,active
same,activity against Ehrlich carcinoma (in words),Ehrlich carcinoma; 50 mg/kg,active
same,C/T Index,Ehrlich carcinoma; 6.25 mg/kg ip × 8,1.5
same,C/T Index,Ehrlich carcinoma; 12.5 mg/kg ip × 8,2.4
same,C/T Index,Ehrlich carcinoma; 25 mg/kg ip × 8,3.4
same,C/T Index,Ehrlich carcinoma; 50 mg/kg ip × 8,12.1
same,No. survivors/No. tested,Ehrlich carcinoma; 6.25 mg/kg,16/16
same,No. survivors/No. tested,Ehrlich carcinoma; 12.5 mg/kg,24/24
same,No. survivors/No. tested,Ehrlich carcinoma; 25 mg/kg,23/24
same,No. survivors/No. tested,Ehrlich carcinoma; 50 mg/kg,21/24
same,activity against leukemia L1210 ascites (in words),leukemia L1210 ascites,inactive
same,activity against sarcoma 180 (in words),sarcoma 180; 12.5 mg/kg,inactive
same,activity against sarcoma 180 (in words),sarcoma 180; 25 mg/kg,active
same,activity against sarcoma 180 (in words),sarcoma 180; 50 mg/kg,active
same,C/T Index,"sarcoma 180; sarcoma 180, 12.5 mg/kg ip × 8",1.7
same,C/T Index,"sarcoma 180; sarcoma 180, 25 mg/kg ip × 8",2.2
same,C/T Index,"sarcoma 180; sarcoma 180, 50 mg/kg ip × 8",5.9
same,activity against KA-31 solid tumor (in words),KA-31; 6.25 mg/kg,not at 6.25 mg/kg
same,activity against KA-31 solid tumor (in words),KA-31; 12.5 mg/kg,activity was observed
same,activity against KA-31 solid tumor (in words),KA-31; 25 mg/kg,activity was observed
same,C/T Index,"KA-31; KA-31, 6.25 mg/kg ip × 14",1.8
same,C/T Index,"KA-31; KA-31, 12.5 mg/kg ip × 14",3.8
same,C/T Index,"KA-31; KA-31, 25 mg/kg ip × 14",13.8
Nc1ncnc2c1ncn2[C@@H]1O[C@H](COP(=O)(O)CC(=O)O)[C@@H](O)[C@H]1O [Adenosine-5'-mono-carboxymethylphosphonate],ED50,pseudorabies virus,386 mg/kg
same,ED50,[1],180 mg/kg
same,ED50,[2],575 mg/kg
Nc1nc2c(ncn2[C@@H]2O[C@H](COP(=O)(O)CC(=O)O)[C@@H](O)[C@H]2O)c(=O)[nH]1 [Guanosine-5'-mono-carboxymethylphosphonate],ED50,[1],144 mg/kg
O=C(O)CP(=O)(O)OC[C@H]1O[C@@H](n2ccc(=O)[nH]c2=O)[C@H](O)[C@@H]1O [Uridine-5'-mono-carboxymethylphosphonate],ED50,[1],127 mg/kg
O=C(O)CP(=O)(O)OC[C@H]1O[C@@H](n2cc(I)c(=O)[nH]c2=O)C[C@@H]1O [5-Iodo-2'-deoxyuridine-5'-mono-carboxymethylphosphonate],ED50,[1],110 mg/kg
O=C(O)CP(=O)(O)O [Phosphonoacetic acid],usefulness in combating Marek's disease (in words),Marek's disease,useful in combating Marek's disease in poultry
same,antiviral activity against herpes simplex infection (in words),herpes simlpex infection,antiviral agent exhibiting oral and topical activity against herpes simlpex infection
Cc1cn([C@H]2C[C@H](O)[C@@H](COP(=O)(O)CC(=O)O)O2)c(=O)[nH]c1=O [Thymidine-5'-mono-carboxymethylphosphonate],ED50,[1],185 mg/kg
"Adenosine-2'-(or 3'),5'-bis-carboxymethylphosphonate",PD50 (Protective Dose50),[1]; 30240 min,197 mg/kg
"Nc1ncnc2c1ncn2[C@H]1C[C@H](O)[C@@H](COP(=O)(O)CC(=O)O)O1 [2'-Deoxyadenosine-5'-monocarboxymethylphosphonate, monoacetonate]",ED50,[1],444 mg/kg
